Patent publication US4035566A, “N-trifluoroacetyladriamycin-14-alkanoates and therapeutic compositions containing same” (Sidney Farber Cancer Institute, Inc., priority 1975, dated 1977)
Read-outs that look alike come from different tables or passages of the source. Blank lines part the entries; values can stand above or below the compound they belong to.

How the values were obtained:
CCRF-CEM cell line = test: in vitro growth inhibition of CCRF-CEM cell line in culture (Foley and Lazarus procedure); format: cell-based, child; conditions: Homo sapiens, read-out: ID50 (dose required to inhibit growth of the cultures by 50% relative to control cultures)
Method: (§1) The toxicity and therapeutic effectiveness of the new compounds and active agents of the present invention are shown by in vitro assays and by in vivo evaluations in mice. The in vitro assays measure the growth inhibiting activity of the materials against the CCRF-CEM cell line in culture. The cell line was derived from the peripheral blood and a child with lymphoblastic leukemia as described by Foley et al., Cancer, Volume 18, page 522 et seq. (1965), and the assays were carried out by the procedure of Foley and Lazarus, Biochem. Pharmacol., Volume 16, pages 659 et seq. (1967), the results being reported in terms of the dose in micromoles per liter required to inhibit growth of the cultures by 50% relative to control cultures to which no drug had been added (ID50). The in vivo evaluations were made by preparing a 0.2 to 0.7% by weight solution of the active agent in a 10% by volume aqueous solution of polyoxyethylene sorbitan monooleate (polysorbate 80) as a carrier and injecting the dosage intraperitoneally. The evaluations were made of the antitumor activity against the murine P 388 and murine L 1210 leukemias in BDF1 male mice according to standard National Cancer Institute protocols as set forth by Geran et al., Cancer Chemotherap. Rep., Part 3, Volume 3, pages 1 et seq. (1972), except that a qd 1-4 schedule was used in place of qd 1-9 in order to conserve materials. Evaluations were also made of the antitumor activity against the Ridgway osteogenic sarcoma, a solid tumor, in AKD2 /F1 mice, according to the procedures described in the report by G. J. D'Angio, C. L. Maddock, S. Farber, and B. L. Brown, Cancer Research, 25, 1002-1007 (1965).
The following table summarizes the inhibitory activity of various N-trifluoroacetyladriamycin-14-alkanoates as well as other materials when tested in vitro as described in the paragraphs preceding Example 1 above.

murine P 388 leukemia = test: in vivo antitumor activity against murine P 388 leukemia (Geran et al. procedure); parameters: species or system BDF1 male mice; conditions: Table II, i.p., qd 1-4; for Survivors 60da: optimal dose mg/kg: acetate 40, isobutyrate 40, valerate 40, caproate 60, caprylate 60; for MILS (Median Increase in Life Span Compared with Untreated Mice) / Survivors 30da: optimal dose mg/kg: adriamycin 4.0, daunomycin 2.0, acetate 40, isobutyrate 40, valerate 40, caproate 60, caprylate 60
Method: as §1
(§2) Optimal dosage was determined by testing doses which were at several multiples of 10 milligrams/kilogram of body weight and the optimal dose was used for further tests. Some effectiveness can be observed at dosages ranging from 20 to 70 milligrams/kilogram of body weight, depending upon the particular ester employed.
The following table summarizes the in vivo antitumor activity against murine P 388 leukemia tested by the Geran et al. procedure as exampled above: […]

murine L 1210 leukemia [1] = test: in vivo antitumor activity against murine L 1210 leukemia (Geran et al. procedure); parameters: species or system BDF1 male mice; conditions: for MILS / Survivors 30da / Survivors 60da: Table III, qd 1-4
Method: as §1, §2
The murine L 1210 leukemia is generally poorly responsive to chemotherapy. […] The following table summarizes the results of three separate in vivo tests of N-trifluoroacetyladriamycin-14-valerate against murine L 1210 leukemia following the Geran et al. procedure as described above: […]

[2] = test system: murine Ridgway osteogenic sarcoma; test: in vivo antitumor activity against murine Ridgway osteogenic sarcoma (D'Angio et al. procedure); parameters: species or system AKD2 /F1 mice; conditions: for MILS / Median Survival: Table IV, days 16-19
Method: as §1
The following table summarizes the in vivo antitumor activity of N-trifluoroacetyladriamycin-14-valerate against the murine Ridgway osteogenic sarcoma following the D'Angio et at. procedure as described above:
*Therapy was started on day 16 when the intramuscularly implanted tumor was palpable. Seven mice were used in each group, and all compounds were administered intraperitoneally.
Complete remission in this system is defined as the absence of palpable tumor.

mice = test: toxicity in mice in the in vivo antitumor tests; conditions: P 388 test conditions, qd 1-4; for toxicity: dose of 60 mg/kg i.p.
Method: as §1, §2

[3] = toxicity in mice in the in vivo antitumor tests; conditions: mouse, in vivo, ip; L1210 test, qd 1-4 schedule; read-out: doses above which toxicity displayed
Method: as §1, §2

malignant tumors = conditions: cited from earlier work; for clinical effectiveness: certain malignant tumors, e.g. induction of remission in acute leukemia
murine L 1210 leukemia [4] = conditions: background statement; cited from earlier work
[5] = Ridgway tumor, complete remission = absence of palpable tumor
[6] = L1210 leukemia, same conditions as Table III

IC50 (CCRF-CEM cell line; CCRF-CEM cells, Table I): 390 nM
SMILES: CCCCCCCCCC(=O)OCC(=O)[C@]1(O)Cc2c(O)c3c(c(O)c2[C@@H](O[C@H]2C[C@H](NC(=O)C(F)(F)F)[C@H](O)[C@H](C)O2)C1)C(=O)c1c(OC)cccc1C3=O [Caprate, N-Trifluoroacetyladriamycin-14-caprate]

SMILES: CCCCC(=O)OCC(=O)[C@]1(O)Cc2c(O)c3c(c(O)c2[C@@H](O[C@H]2C[C@H](NC(=O)C(F)(F)F)[C@H](O)[C@H](C)O2)C1)C(=O)c1c(OC)cccc1C3=O [N-Trifluoroacetyladriamycin-14-valerate]
Survivors 60da (murine P 388 leukemia): 3/5
MILS (Median Increase in Life Span Compared with Untreated Mice) (murine P 388 leukemia): 429%
Survivors 30da (murine P 388 leukemia): 4/5
IC50 (CCRF-CEM cell line; CCRF-CEM cells, Table I): 240 nM
MILS (murine L 1210 leukemia [1]; first test, 60.0 mg/kg i.p.): > 445%
Survivors 30da (murine L 1210 leukemia [1]; first test, 60.0 mg/kg i.p.): 4/5
Survivors 60da (murine L 1210 leukemia [1]; first test, 60.0 mg/kg i.p.): 4/5
MILS (murine L 1210 leukemia [1]; first test, 70.0 mg/kg i.p.): > 445%
Survivors 30da (murine L 1210 leukemia [1]; first test, 70.0 mg/kg i.p.): 4/5
Survivors 60da (murine L 1210 leukemia [1]; first test, 70.0 mg/kg i.p.): 4/5
MILS (murine L 1210 leukemia [1]; second test, 50.0 mg/kg i.p.): > 445%
Survivors 30da (murine L 1210 leukemia [1]; second test, 50.0 mg/kg i.p.): 4/7
Survivors 60da (murine L 1210 leukemia [1]; second test, 50.0 mg/kg i.p.): 4/7
MILS (murine L 1210 leukemia [1]; second test, 60.0 mg/kg i.p.): > 445%
Survivors 30da (murine L 1210 leukemia [1]; second test, 60.0 mg/kg i.p.): 3/6
Survivors 60da (murine L 1210 leukemia [1]; second test, 60.0 mg/kg i.p.): 3/6
MILS (murine L 1210 leukemia [1]; third test, 50.0 mg/kg i.p.): > 400%
Survivors 30da (murine L 1210 leukemia [1]; third test, 50.0 mg/kg i.p.): 5/7
Survivors 60da (murine L 1210 leukemia [1]; third test, 50.0 mg/kg i.p.): 5/7
MILS (murine L 1210 leukemia [1]; third test, 60.0 mg/kg i.p.): > 400%
Survivors 30da (murine L 1210 leukemia [1]; third test, 60.0 mg/kg i.p.): 6/7
Survivors 60da (murine L 1210 leukemia [1]; third test, 60.0 mg/kg i.p.): 6/7
gross number of complete remissions compared with adriamycin [2, 5]: the gross number of complete remissions was greater
median duration of complete remission compared with adriamycin [2, 5]: the median duration of complete remission was longer
MILS ([2]; 50.0 mg/kg i.p.): 130%
Median Survival ([2]; 50.0 mg/kg i.p.): 84.0 days
MILS ([2]; 60.0 mg/kg i.p.): 122%
Median Survival ([2]; 60.0 mg/kg i.p.): 81.0 days

SMILES: COc1cccc2c1C(=O)c1c(O)c3c(c(O)c1C2=O)C[C@@](O)(C(=O)COC(=O)C(C)C)C[C@@H]3O[C@H]1C[C@H](NC(=O)C(F)(F)F)[C@H](O)[C@H](C)O1 [Isobutyrate, N-Trifluoroacetyladriamycin-14-isobutyrate]
Survivors 60da (murine P 388 leukemia): 1/5
MILS (Median Increase in Life Span Compared with Untreated Mice) (murine P 388 leukemia): 150%
Survivors 30da (murine P 388 leukemia): 3/5
IC50 (CCRF-CEM cell line; CCRF-CEM cells, Table I): 280 nM

IC50 (CCRF-CEM cell line; CCRF-CEM cells, Table I): 300 nM
SMILES: CCC(=O)OCC(=O)[C@]1(O)Cc2c(O)c3c(c(O)c2[C@@H](O[C@H]2C[C@H](NC(=O)C(F)(F)F)[C@H](O)[C@H](C)O2)C1)C(=O)c1c(OC)cccc1C3=O [Propionate, N-Trifluoroacetyladriamycin-14-propionate]

SMILES: CCCCCC(=O)OCC(=O)[C@]1(O)Cc2c(O)c3c(c(O)c2[C@@H](O[C@H]2C[C@H](NC(=O)C(F)(F)F)[C@H](O)[C@H](C)O2)C1)C(=O)c1c(OC)cccc1C3=O [Caproate, N-Trifluoroacetyladriamycin-14-caproate]
toxicity (mice): no toxicity was observed
Survivors 60da (murine P 388 leukemia): 1/5
MILS (Median Increase in Life Span Compared with Untreated Mice) (murine P 388 leukemia): 271%
Survivors 30da (murine P 388 leukemia): 5/5
IC50 (CCRF-CEM cell line; CCRF-CEM cells, Table I): 330 nM

SMILES: CCCCCCCC(=O)OCC(=O)[C@]1(O)Cc2c(O)c3c(c(O)c2[C@@H](O[C@H]2C[C@H](NC(=O)C(F)(F)F)[C@H](O)[C@H](C)O2)C1)C(=O)c1c(OC)cccc1C3=O [Caprylate, N-Trifluoroacetyladriamycin-14-caprylate]
toxicity (mice): no toxicity was observed
Survivors 60da (murine P 388 leukemia): 1/5
MILS (Median Increase in Life Span Compared with Untreated Mice) (murine P 388 leukemia): 243%
Survivors 30da (murine P 388 leukemia): 5/5
IC50 (CCRF-CEM cell line; CCRF-CEM cells, Table I): 360 nM

IC50 (CCRF-CEM cell line; CCRF-CEM cells, Table I): 590 nM
SMILES: COc1cccc2c1C(=O)c1c(O)c3c(c(O)c1C2=O)C[C@@](O)(C(=O)COC(=O)C(C)(C)C)C[C@@H]3O[C@H]1C[C@H](NC(=O)C(F)(F)F)[C@H](O)[C@H](C)O1 [Pivalate, N-Trifluoroacetyladriamycin-14-pivalate]

SMILES: CCCCC(=O)OCC(=O)[C@]1(O)Cc2c(O)c3c(c(O)c2[C@@H](O[C@H]2C[C@H](N)[C@H](O)[C@H](C)O2)C1)C(=O)c1c(OC)cccc1C3=O [adriamycin-14-valerate, reference compound]
MTD [3]: > 4 mg/kg
effectiveness in prolonging survival of tumor-bearing mice compared with daunomycin (murine L 1210 leukemia [1]; [6]): no more effective than daunomycin
survivors after 30 days (murine L 1210 leukemia [1]; [6]): no survivors after 30 days

SMILES: COc1cccc2c1C(=O)c1c(O)c3c(c(O)c1C2=O)C[C@@](O)(C(=O)CO)C[C@@H]3O[C@H]1C[C@H](N)[C@H](O)[C@H](C)O1 [Adriamycin]
dose at and above which toxic (mice; i.p.): ≥ 4 mg/kg
MILS (Median Increase in Life Span Compared with Untreated Mice) (murine P 388 leukemia): 132%
Survivors 30da (murine P 388 leukemia): 0/6
IC50 (CCRF-CEM cell line; CCRF-CEM): 66 nM
MILS (murine L 1210 leukemia [1]; first test, 4.0 mg/kg i.p.): 45%
Survivors 30da (murine L 1210 leukemia [1]; first test, 4.0 mg/kg i.p.): 0/5
MILS (murine L 1210 leukemia [1]; second test, 4.0 mg/kg i.p.): 54%
Survivors 30da (murine L 1210 leukemia [1]; second test, 4.0 mg/kg i.p.): 1/5
Survivors 60da (murine L 1210 leukemia [1]; second test, 4.0 mg/kg i.p.): 0/5
MILS (murine L 1210 leukemia [1]; third test, 4.0 mg/kg i.p.): 42%
Survivors 30da (murine L 1210 leukemia [1]; third test, 4.0 mg/kg i.p.): 0/7
clinical effectiveness (malignant tumors): effective clinically against certain malignant tumors
toxicities in chemotherapy (malignant tumors; limiting long-term use): a variety of toxicities which limit the effectiveness of the compounds
clinical efficacy against certain solid tumors (malignant tumors; solid tumors): has shown clinical efficacy against certain solid tumors
MILS ([2]; 3.0 mg/kg i.p.): 40%
Median Survival ([2]; 3.0 mg/kg i.p.): 51.0 days
effectiveness in prolonging survival of mice bearing L 1210 leukemia (general statement) (murine L 1210 leukemia [4]): only moderately effective

SMILES: COc1cccc2c1C(=O)c1c(O)c3c(c(O)c1C2=O)C[C@@](O)(C(C)=O)C[C@@H]3O[C@H]1C[C@H](N)[C@H](O)[C@H](C)O1 [Daunomycin, reference compound]
MILS (Median Increase in Life Span Compared with Untreated Mice) (murine P 388 leukemia): 91%
Survivors 30da (murine P 388 leukemia): 0/6
IC50 (CCRF-CEM cell line; CCRF-CEM): 35 nM
clinical effectiveness (malignant tumors): effective clinically against certain malignant tumors
toxicities in chemotherapy (malignant tumors; in vivo): a variety of toxicities which limit the effectiveness of the compounds
effectiveness in prolonging survival of mice bearing L 1210 leukemia (general statement) (murine L 1210 leukemia [4]): much less so

SMILES: COc1cccc2c1C(=O)c1c(O)c3c(c(O)c1C2=O)C[C@@](O)(C(=O)COC(C)=O)C[C@@H]3O[C@H]1C[C@H](NC(=O)C(F)(F)F)[C@H](O)[C@H](C)O1 [Acetate, N-trifluoroacetyladriamycin-14-acetate]
Survivors 60da (murine P 388 leukemia): 0/5
MILS (Median Increase in Life Span Compared with Untreated Mice) (murine P 388 leukemia): 173%
Survivors 30da (murine P 388 leukemia): 2/5
IC50 (CCRF-CEM cell line; CCRF-CEM cells, Table I): 200 nM
